From ChEMBL document CHEMBL1201862, “PubChem BioAssay data set” (2004)
Active and inactive are the calls of the source.

What was measured:
[1] = toxicity to human HepG2 hepatoma cells – cell-based, plate reader, dry powder samples, cytotoxicity control, dose response (AID 1159569); assay type: functional;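 also: inhibitor potency with signal falling toward the positive control level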
[2] = Dd2 malaria parasite growth inhibition potency – SYBR Green, dry powder samples, dose response (AID 1159566); assay type: functional, cell-based;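 also: potency for growth inhibition with lower SYBR green DNA signal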
[3] = growth inhibition of PfATP4-mutant resistant parasites – NITD609-resistant line, SYBR Green, dry powder, dose response (AID 1159571); assay type: functional, cell-based;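 also: parasites synchronized at ring stage by sorbitol before testing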
[4] = P. falciparum Dd2 growth inhibitors, dose response, SYBR Green, cherry-picked samples (AID 1159567); assay type: functional, cell-based
[5] = growth inhibition of yeast DHODH-expressing 3D7 parasites – SYBR Green, dry powder samples, dose response (AID 1159570); assay type: functional, cell-based;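 also: parasite growth measured after 72 hours of compound exposure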
Phospholipase D2 = Phospholipase D2 (Homo sapiens, UniProt O14939); assay: PLD2 Cellular Concentration Response Study.; assay type: functional
Phospholipase D1 = Phospholipase D1 (Homo sapiens, UniProt Q13393); assay: PLD1 Cellular Concentration Response Study.; assay type: functional
[6] = toxicity to human hepatoma HepG2 cells – cell-based, cherry-picked samples, cytotoxicity control, dose response (AID 1159577); assay type: functional
[7] = target: RNA-editing ligase 1, mitochondrial (Trypanosoma brucei brucei, UniProt P86926); assay: inhibition of trypanosome RNA editing ligase – biochemical, fluorescence, Trypanosoma brucei, dose response (AID 1117295); assay type: functional
[8] = Luminescence Cell-Based Dose Confirmation HTS to Identify Inhibitors of Platelet Dense Granule Release. [Related pubchem assays: 1663 (Primary HTS), 1678 (Summary of Project)]; assay type: functional
[9] = inhibition of ADAM10 peptide cleavage – biochemical, FRET peptide substrate, recombinant human ADAM10, selectivity assay for ADAM17 exosite inhibitor project, dose response (AID 743259);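 also: ADAM10 enzyme cleaving a FRET peptide substrate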
[10] = target: Luciferin 4-monooxygenase (Photinus pyralis, UniProt P08659); assay: inhibition of purified Photinus pyralis luciferase – biochemical, luminescence, dose response (AID 1891)
[11] = target: Disintegrin and metalloproteinase domain-containing protein 17 (Homo sapiens, UniProt P78536); assay: exosite inhibitors of ADAM17, dose response, biochemical (AID 743260)
[12] = target: T1, Corticotropin-releasing factor receptor 2/Corticotropin-releasing factor-binding protein (Homo sapiens, UniProt P24387+Q13324); assay: Dose Response confirmation of uHTS hits for small molecule antagonists of the CRF-binding protein and CRF-R2 receptor complex.; assay type: functional; details: read-out: IC50_Mean
T1 sequence (Q13324 whole entry): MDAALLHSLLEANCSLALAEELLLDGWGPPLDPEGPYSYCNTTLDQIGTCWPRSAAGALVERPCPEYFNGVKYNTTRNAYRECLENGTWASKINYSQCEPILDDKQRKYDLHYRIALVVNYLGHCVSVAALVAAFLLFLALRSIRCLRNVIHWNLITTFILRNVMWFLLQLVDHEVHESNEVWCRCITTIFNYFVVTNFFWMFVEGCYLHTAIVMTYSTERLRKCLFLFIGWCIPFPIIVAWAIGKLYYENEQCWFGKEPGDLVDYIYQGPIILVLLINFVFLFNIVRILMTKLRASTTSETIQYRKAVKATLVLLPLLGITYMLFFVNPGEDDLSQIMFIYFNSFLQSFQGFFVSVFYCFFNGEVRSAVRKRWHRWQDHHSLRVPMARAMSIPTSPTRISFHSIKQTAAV
T1 sequence (P24387 whole entry): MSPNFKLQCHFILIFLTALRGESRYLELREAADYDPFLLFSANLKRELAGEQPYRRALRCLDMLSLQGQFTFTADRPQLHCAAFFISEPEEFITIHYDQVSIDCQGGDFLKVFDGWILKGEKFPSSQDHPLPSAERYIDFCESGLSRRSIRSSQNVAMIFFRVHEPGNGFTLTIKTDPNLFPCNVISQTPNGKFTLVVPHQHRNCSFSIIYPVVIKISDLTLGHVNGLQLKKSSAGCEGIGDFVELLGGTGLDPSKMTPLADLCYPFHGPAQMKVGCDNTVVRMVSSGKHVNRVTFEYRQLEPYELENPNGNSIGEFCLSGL

[13] = rise of 2N DNA cells, HeLa – IC50, dose response (AID 1117349); assay type: functional, cell-based
[14] = target: T1, Corticotropin-releasing factor receptor 2/Corticotropin-releasing factor-binding protein; assay: activators of CRF receptor 2 with binding protein – uHTS hits, confirmation (AID 602473); assay type: functional; details: read-out: EC50_Mean
[15] = rise of 4N DNA cells, HeLa – IC50, dose response (AID 1117351); assay type: functional, cell-based
[16] = target: Oxysterols receptor LXR-beta (Homo sapiens, UniProt P55055); assay type: functional, cell-based;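 also: agonist activity at LXR measured by a cell-based luminescence readout across a dose range, run as a counterscreen for daf-12 agonists; HEK293 cells with Gal4-LXR fusion and GAL4-driven luciferase reporter; potency for activation of Gal4-LXR reporter so compounds are agonists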
Fibrinogen beta chain [17] = target: T2, Fibrinogen beta chain (Homo sapiens, UniProt P02675); assay: Fluorescence polarization-based biochemical high throughput dose response assay to identify inhibitors that disrupt the binding of a cyclic peptide (Tn6) to the fibrin proteolytic product D-Dimer and fragment E complex [DD(E )].
Fibrinogen beta chain [18] = target: T2, Fibrinogen beta chain; assay: Fluorescence polarization-based biochemical high throughput dose response assay to identify inhibitors that disrupt the binding of a cyclic peptide (Tn7) to the fibrin proteolytic product D-Dimer and fragment E complex [DD(E )].
Paired box protein Pax-8 = Paired box protein Pax-8 (Homo sapiens, UniProt Q06710); assay: PAX8 transcriptional activity inhibition in RMG-I – RMG-I cells, luciferase, cherry-pick, dose response (AID 687027); assay type: functional, cell-based;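 also: luciferase reporter driven by Pax8 target thyroperoxidase promoter measured by SteadyGlo luminescence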
[19] = OVCAR-3 cell viability loss – plate reader, dry powder samples, PAX8 inhibitor project, dose response (AID 743044); assay type: functional, cell-based
cells = details: HEK293
[20] = toxicity to HepG2 liver cells – cell-based, plate reader, dry powder, set 6, cytotoxicity control, dose response (AID 743311); assay type: functional

T2 sequence (P02675 whole entry, the tested form may be a part): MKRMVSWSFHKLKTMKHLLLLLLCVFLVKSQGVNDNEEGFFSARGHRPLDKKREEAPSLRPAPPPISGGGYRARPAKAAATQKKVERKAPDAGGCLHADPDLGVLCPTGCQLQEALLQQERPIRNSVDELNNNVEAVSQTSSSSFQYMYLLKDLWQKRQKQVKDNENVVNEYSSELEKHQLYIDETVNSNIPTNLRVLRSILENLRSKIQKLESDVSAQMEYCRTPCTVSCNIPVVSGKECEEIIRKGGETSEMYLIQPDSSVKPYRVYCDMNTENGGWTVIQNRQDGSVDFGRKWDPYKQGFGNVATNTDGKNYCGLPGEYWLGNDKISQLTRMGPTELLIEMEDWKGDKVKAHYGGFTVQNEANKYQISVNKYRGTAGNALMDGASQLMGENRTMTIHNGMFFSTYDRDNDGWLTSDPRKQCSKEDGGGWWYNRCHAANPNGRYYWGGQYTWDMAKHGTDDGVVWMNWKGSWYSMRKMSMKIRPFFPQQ
Phospholipase D2, sequence (O14939 whole entry): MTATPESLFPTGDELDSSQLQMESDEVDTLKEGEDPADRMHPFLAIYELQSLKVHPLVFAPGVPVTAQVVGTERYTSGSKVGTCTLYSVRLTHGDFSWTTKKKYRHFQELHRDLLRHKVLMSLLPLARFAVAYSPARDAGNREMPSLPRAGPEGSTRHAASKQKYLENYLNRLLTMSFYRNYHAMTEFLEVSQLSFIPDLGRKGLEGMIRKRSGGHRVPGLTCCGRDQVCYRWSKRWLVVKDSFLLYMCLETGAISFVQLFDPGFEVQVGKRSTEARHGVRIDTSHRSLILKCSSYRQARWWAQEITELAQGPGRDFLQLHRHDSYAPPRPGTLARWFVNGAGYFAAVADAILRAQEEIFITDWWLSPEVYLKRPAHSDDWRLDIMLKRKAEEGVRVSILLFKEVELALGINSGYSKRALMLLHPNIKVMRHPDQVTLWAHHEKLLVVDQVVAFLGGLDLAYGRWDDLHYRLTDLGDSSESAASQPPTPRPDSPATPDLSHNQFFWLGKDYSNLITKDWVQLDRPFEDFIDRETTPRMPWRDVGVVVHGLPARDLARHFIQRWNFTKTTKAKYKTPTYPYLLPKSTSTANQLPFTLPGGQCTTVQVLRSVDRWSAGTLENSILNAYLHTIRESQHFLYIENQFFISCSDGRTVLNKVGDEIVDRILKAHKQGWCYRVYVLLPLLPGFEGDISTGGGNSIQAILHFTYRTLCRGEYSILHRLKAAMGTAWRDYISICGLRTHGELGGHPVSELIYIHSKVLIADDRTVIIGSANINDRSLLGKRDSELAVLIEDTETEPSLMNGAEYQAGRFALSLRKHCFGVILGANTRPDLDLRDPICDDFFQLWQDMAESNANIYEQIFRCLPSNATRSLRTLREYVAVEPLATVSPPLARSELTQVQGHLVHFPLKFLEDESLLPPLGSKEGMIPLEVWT
Phospholipase D1, sequence (Q13393 whole entry): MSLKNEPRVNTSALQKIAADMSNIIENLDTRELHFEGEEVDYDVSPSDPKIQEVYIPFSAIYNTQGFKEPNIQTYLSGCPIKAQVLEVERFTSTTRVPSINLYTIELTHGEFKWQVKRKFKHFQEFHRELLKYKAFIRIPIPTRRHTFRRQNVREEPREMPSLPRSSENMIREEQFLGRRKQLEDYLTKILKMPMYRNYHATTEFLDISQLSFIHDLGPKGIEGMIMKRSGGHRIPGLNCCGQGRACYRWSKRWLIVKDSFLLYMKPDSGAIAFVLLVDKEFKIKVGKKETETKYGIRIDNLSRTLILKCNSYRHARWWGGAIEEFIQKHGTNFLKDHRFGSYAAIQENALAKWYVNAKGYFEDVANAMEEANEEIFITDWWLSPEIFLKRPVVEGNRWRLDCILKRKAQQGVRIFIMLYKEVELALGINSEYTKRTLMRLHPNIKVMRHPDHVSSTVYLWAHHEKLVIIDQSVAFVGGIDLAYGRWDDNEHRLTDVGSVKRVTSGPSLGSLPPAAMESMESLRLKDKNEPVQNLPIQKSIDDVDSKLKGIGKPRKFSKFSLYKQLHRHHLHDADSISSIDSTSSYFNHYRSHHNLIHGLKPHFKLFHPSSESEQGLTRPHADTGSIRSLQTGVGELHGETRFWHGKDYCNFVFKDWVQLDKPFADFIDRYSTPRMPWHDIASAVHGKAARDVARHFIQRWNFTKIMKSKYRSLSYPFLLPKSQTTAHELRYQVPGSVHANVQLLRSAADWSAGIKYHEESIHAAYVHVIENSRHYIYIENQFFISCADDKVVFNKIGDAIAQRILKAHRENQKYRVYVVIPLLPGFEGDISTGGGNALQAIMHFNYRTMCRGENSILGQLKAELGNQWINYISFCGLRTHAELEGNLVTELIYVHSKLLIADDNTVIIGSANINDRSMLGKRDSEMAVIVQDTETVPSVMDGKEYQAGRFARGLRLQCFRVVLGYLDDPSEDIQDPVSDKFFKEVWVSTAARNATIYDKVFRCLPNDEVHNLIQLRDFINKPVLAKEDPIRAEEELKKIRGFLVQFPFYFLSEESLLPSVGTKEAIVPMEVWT
Luciferin 4-monooxygenase, sequence (P08659 whole entry, the tested form may be a part): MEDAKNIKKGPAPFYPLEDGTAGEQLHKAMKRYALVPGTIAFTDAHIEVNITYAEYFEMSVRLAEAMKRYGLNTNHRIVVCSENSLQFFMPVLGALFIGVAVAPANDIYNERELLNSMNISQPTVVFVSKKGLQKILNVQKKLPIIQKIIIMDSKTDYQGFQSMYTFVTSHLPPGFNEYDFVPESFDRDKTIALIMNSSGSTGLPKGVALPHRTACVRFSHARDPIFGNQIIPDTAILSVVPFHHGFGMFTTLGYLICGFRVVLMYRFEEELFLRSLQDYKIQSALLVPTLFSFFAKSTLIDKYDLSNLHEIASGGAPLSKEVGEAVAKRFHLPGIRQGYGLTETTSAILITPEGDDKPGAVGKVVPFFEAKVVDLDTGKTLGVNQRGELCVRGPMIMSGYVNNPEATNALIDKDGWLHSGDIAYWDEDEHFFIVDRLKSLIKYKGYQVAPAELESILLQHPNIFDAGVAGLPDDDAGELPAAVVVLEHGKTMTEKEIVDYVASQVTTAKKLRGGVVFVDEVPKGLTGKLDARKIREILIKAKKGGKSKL
Disintegrin and metalloproteinase domain-containing protein 17, sequence (P78536 whole entry, the tested form may be a part): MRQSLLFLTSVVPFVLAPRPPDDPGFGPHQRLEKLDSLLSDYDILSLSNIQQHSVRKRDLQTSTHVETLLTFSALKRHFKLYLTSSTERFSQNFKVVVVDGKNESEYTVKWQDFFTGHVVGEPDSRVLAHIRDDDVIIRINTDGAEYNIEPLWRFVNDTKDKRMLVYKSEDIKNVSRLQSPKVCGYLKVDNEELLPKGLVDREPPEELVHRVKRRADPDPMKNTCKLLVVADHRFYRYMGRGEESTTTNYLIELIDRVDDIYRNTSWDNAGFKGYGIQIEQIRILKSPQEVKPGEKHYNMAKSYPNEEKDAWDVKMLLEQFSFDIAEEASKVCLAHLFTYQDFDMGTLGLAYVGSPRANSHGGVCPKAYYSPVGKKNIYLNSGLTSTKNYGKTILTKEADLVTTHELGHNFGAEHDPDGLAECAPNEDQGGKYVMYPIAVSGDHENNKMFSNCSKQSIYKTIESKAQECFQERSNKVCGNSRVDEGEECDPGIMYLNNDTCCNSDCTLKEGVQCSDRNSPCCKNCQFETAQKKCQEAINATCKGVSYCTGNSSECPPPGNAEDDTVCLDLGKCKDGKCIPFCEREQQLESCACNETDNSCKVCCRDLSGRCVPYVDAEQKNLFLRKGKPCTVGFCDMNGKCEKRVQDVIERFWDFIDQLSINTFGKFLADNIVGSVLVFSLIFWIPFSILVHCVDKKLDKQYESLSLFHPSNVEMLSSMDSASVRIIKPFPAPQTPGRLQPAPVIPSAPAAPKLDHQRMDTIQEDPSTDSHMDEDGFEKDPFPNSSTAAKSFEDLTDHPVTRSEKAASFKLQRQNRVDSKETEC
Paired box protein Pax-8, sequence (Q06710 whole entry): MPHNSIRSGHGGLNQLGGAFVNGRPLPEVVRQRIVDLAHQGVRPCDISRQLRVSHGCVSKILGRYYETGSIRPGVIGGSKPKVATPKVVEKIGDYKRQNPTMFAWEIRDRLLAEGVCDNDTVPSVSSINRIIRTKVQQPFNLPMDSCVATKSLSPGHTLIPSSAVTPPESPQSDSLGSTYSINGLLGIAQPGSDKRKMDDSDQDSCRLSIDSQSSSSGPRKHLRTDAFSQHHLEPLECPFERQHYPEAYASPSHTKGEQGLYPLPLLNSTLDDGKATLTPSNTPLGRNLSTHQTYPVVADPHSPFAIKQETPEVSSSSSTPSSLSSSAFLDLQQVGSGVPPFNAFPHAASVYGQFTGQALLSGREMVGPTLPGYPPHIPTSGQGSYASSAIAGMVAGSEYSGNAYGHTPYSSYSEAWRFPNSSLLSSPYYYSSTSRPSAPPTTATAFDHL
Oxysterols receptor LXR-beta, sequence (P55055 whole entry, the tested form may be a part): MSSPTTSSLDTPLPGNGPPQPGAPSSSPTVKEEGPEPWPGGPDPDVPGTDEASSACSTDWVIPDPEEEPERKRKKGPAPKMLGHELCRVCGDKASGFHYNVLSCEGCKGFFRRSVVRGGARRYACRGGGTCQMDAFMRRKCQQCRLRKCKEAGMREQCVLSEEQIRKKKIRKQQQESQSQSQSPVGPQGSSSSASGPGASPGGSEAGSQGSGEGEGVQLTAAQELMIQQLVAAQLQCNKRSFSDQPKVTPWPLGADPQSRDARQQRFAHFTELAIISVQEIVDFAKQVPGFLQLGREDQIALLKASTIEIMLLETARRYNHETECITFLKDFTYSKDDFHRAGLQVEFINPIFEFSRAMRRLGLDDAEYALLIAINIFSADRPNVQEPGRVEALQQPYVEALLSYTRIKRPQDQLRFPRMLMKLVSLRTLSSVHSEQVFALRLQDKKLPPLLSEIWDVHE

**Q.** Which AC50 [1] does the source give for `C/C=C/c1ccc([C@H]2[C@@H](CO)N(CC3CCCC3)[C@@H]2CNC(=O)NC(C)C)cc1` here?
**A.** 25.4 µM (active)

**Q.** What about the AC50 [2] of the same compound?
**A.** 1.91 µM (active)

**Q.** And the AC50 [3]?
**A.** 2.41 µM (active)

**Q.** What about the AC50 [4] of the same compound?
**A.** 2.71 µM (active)

**Q.** And the AC50 [5]?
**A.** 2.73 µM (active)

**Q.** Which IC50 (Phospholipase D2) does the source give for `O=C(NCCN1CCC2(CC1)C(=O)NCN2CC1CC1)c1ccc2ccccc2c1` here?
**A.** 2.05 µM (active)

**Q.** What about the IC50 (Phospholipase D1) of the same compound?
**A.** 20 µM (active)

**Q.** With `Cc1cccc(-c2ccc([C@@H]3[C@@H]4CN(C(=O)C5CCCC5)C[C@H]3N4)cc2)c1` as the compound, how does the AC50 [4] read?
**A.** 4.39 µM (active)

**Q.** And the AC50 [6]?
**A.** 10.7 µM (active)

**Q.** For `C=CCNC1=NC(c2cccc(F)c2)C(C(=O)OC)=C(C)N1Cc1cccc(C(F)(F)F)c1` (stereo not given), which IC50 [7] is on record?
**A.** > 96.6 µM (inactive)

**Q.** With `Cc1ccccc1-c1noc(-c2ccc(O)cc2)n1` as the compound, how does the EC50 [8] read?
**A.** 0.623 µM (active)

**Q.** And the IC50 [9]?
**A.** 48.8 µM (inactive)

**Q.** What about the EC50 [10] of the same compound?
**A.** 0.122 µM (active)

**Q.** And the IC50 [11]?
**A.** > 69.5 µM (inactive)

**Q.** Which IC50 [12] does the source give for `Nc1nc(F)nc2c1ncn2[C@@H]1O[C@H](CO)[C@@H](O)[C@@H]1O` [FLUDARABINE] here?
**A.** > 47.1 µM (inactive)

**Q.** And the IC50 [13]?
**A.** > 10 µM (inactive)

**Q.** And the EC50 [14]?
**A.** > 53 µM (inactive)

**Q.** And the IC50 [15]?
**A.** > 10 µM (inactive)

**Q.** Which EC50 [16] does the source give for `Cc1ccc(-c2csc(NC(=O)/C=C/c3ccco3)c2C(=O)O)cc1` here?
**A.** > 67.6 µM (inactive)

**Q.** What does the source list for `C#CCNc1ccc(C(=O)OCC)cc1`?
**A.** IC50 (Fibrinogen beta chain [17]): > 83.1 µM (inactive); IC50 (Fibrinogen beta chain [18]): > 27.7 µM (inactive)

**Q.** Which AC50 (Paired box protein Pax-8) does the source give for `Cc1cccc(S(=O)(=O)N2CC[C@@H]3[C@H](CO)N(C)c4ccc(-c5ccc(C#N)cc5)cc4[C@@H]32)c1` here?
**A.** 10.1 µM (active)

**Q.** What about the AC50 [19] of the same compound?
**A.** 67.7 µM (active)

**Q.** What does the source list for `Cc1ccc(C(C)C)c(OCCn2c(N)nc3ccccc32)c1`?
**A.** AC50 (cells): 19.1 µM (active); AC50 [20]: 4.5 µM (active)
